Legend:
[1] = system: glucocorticoid receptor function; assay: one or more of the above assays (GR binding and glucocorticoid receptor cell assays: aromatase, IL-6, TAT, MMTV-Luc, IL-8, ICAM-Luc); format: cell-based; details: assay not specified per compound
[2] = target: T1, human glucocorticoid receptor (GR) complex (Homo sapiens, UniProt P04150); assay: Glucocorticoid receptor competitive binding assay (fluorescence polarization, TAMRA-labeled dexamethasone probe); details: compounds of Formula (IA)
T1 construct: made in house; host or cells: insect expression system (baculovirus lysate)
T1 sequence (P04150 1-777): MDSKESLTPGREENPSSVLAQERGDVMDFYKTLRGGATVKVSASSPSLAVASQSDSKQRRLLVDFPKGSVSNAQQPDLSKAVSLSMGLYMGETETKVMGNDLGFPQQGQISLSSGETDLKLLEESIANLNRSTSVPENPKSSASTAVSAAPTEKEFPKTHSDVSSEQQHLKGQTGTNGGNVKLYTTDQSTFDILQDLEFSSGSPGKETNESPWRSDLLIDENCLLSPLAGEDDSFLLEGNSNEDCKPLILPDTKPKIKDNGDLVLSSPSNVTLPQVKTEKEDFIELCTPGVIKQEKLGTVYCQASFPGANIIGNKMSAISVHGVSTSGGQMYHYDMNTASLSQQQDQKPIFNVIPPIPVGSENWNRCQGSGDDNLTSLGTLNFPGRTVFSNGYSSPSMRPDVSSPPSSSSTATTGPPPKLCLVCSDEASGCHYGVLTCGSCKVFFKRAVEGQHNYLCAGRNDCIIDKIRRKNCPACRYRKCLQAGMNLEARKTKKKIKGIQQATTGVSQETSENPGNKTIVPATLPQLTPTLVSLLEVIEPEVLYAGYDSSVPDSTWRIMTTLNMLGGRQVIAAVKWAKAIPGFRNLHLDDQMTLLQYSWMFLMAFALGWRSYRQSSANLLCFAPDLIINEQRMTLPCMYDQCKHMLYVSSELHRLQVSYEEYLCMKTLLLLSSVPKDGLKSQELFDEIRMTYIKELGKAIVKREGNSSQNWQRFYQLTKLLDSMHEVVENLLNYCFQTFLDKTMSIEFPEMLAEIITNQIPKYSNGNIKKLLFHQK
Outline: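 Fluorescence-polarization competition against 15 nM TAMRA-dexamethasone (stock added to the mix) for human GR complex from baculovirus lysate diluted 1:170. Buffer: 10 mM TES, 50 mM KCl, 20 mM Na2MoO4, 1.5 mM EDTA, 0.04% CHAPS, 10% glycerol, 1 mM DTT, pH 7.4. IC50 from 4-parameter logistic fit.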

SMILES: Cc1ccc(F)cc1C(C)(C)CC(O)(Cn1ccc2ncccc21)C(F)(F)F (stereo not shown) [1,1,1-Trifluoro-4-(5-fluoro-2-methylphenyl)-4-methyl-2-pyrrolo[3,2-b]pyridin-1-ylmethylpentan-2-ol]
- activity as agonists of the glucocorticoid receptor function in one or more of the above assays [1]: potent agonists
- activity in the GR binding assay [2]: potent activity

SMILES: Cc1ccc(F)cc1C(C)(C)CC(O)(Cc1ccnc2ccccc12)C(F)(F)F (stereo not shown) [1,1,1-Trifluoro-4-(5-fluoro-2-methylphenyl)-4-methyl-2-quinolin-4-ylmethylpentan-2-ol]
- activity as agonists of the glucocorticoid receptor function in one or more of the above assays [1]: potent agonists
- activity in the GR binding assay [2]: potent activity

SMILES: Cc1cc(CC(O)(CC(C)(C)c2cc(F)ccc2O)C(F)(F)F)c2ccccc2n1 (stereo not shown) [4-Fluoro-2-[4,4,4-trifluoro-3-hydroxy-1,1-dimethyl-3-(2-methylquinolin-4-ylmethyl)butyl]phenol]
- activity as agonists of the glucocorticoid receptor function in one or more of the above assays [1]: potent agonists
- activity in the GR binding assay [2]: potent activity

SMILES: CC(C)(CC(O)(Cn1ccc2ncccc21)C(F)(F)F)c1cc(Cl)cc2c1OCC2 (stereo not shown) [4-(5-Chloro-2,3-dihydrobenzofuran-7-yl)-1,1,1-trifluoro-4-methyl-2-pyrrolo[3,2-b]pyridin-1-ylmethylpentan-2-ol]
- activity as agonists of the glucocorticoid receptor function in one or more of the above assays [1]: potent agonists
- activity in the GR binding assay [2]: potent activity

SMILES: Cc1cc(CC(O)(CC(C)(C)c2cc(F)ccc2C)C(F)(F)F)cc(C)n1 (stereo not shown) [2-(2,6-Dimethylpyridin-4-ylmethyl)-1,1,1-trifluoro-4-(5-fluoro-2-methylphenyl)-4-methylpentan-2-ol]
- activity as agonists of the glucocorticoid receptor function in one or more of the above assays [1]: potent agonists
- activity in the GR binding assay [2]: potent activity

SMILES: CSc1cc2c(c(C(C)(C)CC(O)(Cc3[nH]c4ccccc4c3C#N)C(F)(F)F)c1)OCC2 (stereo not shown) [2-[2-Hydroxy-4-methyl-4-(5-methylsulfanyl-2,3-dihydrobenzofuran-7-yl)-2-trifluoromethylpentyl]-1H-indole-3-carbonitrile]
- activity as agonists of the glucocorticoid receptor function in one or more of the above assays [1]: potent agonists
- activity in the GR binding assay [2]: potent activity

SMILES: COc1ccc(F)cc1C(C)(C)CC(O)(Cc1cc2c(C#N)nccc2[nH]1)C(F)(F)F (stereo not shown) [2-[4-(5-Fluoro-2-methoxyphenyl)-2-hydroxy-4-methyl-2-trifluoromethylpentyl]-1H-pyrrolo[3,2-c]pyridine-4-carbonitrile]
- activity as agonists of the glucocorticoid receptor function in one or more of the above assays [1]: potent agonists
- activity in the GR binding assay [2]: potent activity

SMILES: CN(C)C(=O)c1ccc2[nH]c(CC(O)(CC(C)(C)c3cc(Br)cc4c3OCC4)C(F)(F)F)cc2c1 (stereo not shown) [2-[4-(5-Bromo-2,3-dihydrobenzofuran-7-yl)-2-hydroxy-4-methyl-2-trifluoromethylpentyl]-1H-indole-5-carboxylic acid dimethylamide]
- activity as agonists of the glucocorticoid receptor function in one or more of the above assays [1]: potent agonists
- activity in the GR binding assay [2]: potent activity

SMILES: COc1cc2cc(CC(O)(CC(C)(C)c3cc(F)ccc3C)C(F)(F)F)[nH]c2cn1 (stereo not shown) [1,1,1-Trifluoro-4-(5-fluoro-2-methylphenyl)-2-(5-methoxy-1H-pyrrolo[2,3-c]pyridin-2-ylmethyl)-4-methylpentan-2-ol]
- activity as agonists of the glucocorticoid receptor function in one or more of the above assays [1]: potent agonists
- activity in the GR binding assay [2]: potent activity

SMILES: COc1cc(F)ccc1C(C)(C)CC(O)(Cc1cc(C)nc(C)c1)C(F)(F)F (stereo not shown) [2-(2,6-Dimethylpyridin-4-ylmethyl)-1,1,1-trifluoro-4-(4-fluoro-2-methoxyphenyl)-4-methylpentan-2-ol]
- activity as agonists of the glucocorticoid receptor function in one or more of the above assays [1]: potent agonists
- activity in the GR binding assay [2]: potent activity

SMILES: Cc1ccc(F)c2[nH]c(CC(O)(CC(C)(C)c3ccc(F)cc3O)C(F)(F)F)cc12 (stereo not shown) [5-Fluoro-2-[4,4,4-trifluoro-3-(7-fluoro-4-methyl-1H-indol-2-ylmethyl)-3-hydroxy-1,1-dimethylbutyl]phenol]
- activity as agonists of the glucocorticoid receptor function in one or more of the above assays [1]: potent agonists
- activity in the GR binding assay [2]: potent activity

SMILES: CC(C)(C)c1ccc(O)c(C(C)(C)CC(O)(Cc2[nH]c3ccccc3c2C#N)C(F)(F)F)c1 (stereo not shown) [2-[4-(5-tert-Butyl-2-hydroxyphenyl)-2-hydroxy-4-methyl-2-trifluoromethylpentyl]-1H-indole-3-carbonitrile]
- activity as agonists of the glucocorticoid receptor function in one or more of the above assays [1]: potent agonists
- activity in the GR binding assay [2]: potent activity

SMILES: COc1ccc(F)cc1C(C)(C)CC(O)(Cc1[nH]c2ccncc2c1C)C(F)(F)F (stereo not shown) [1,1,1-Trifluoro-4-(5-fluoro-2-methoxyphenyl)-4-methyl-2-(3-methyl-1H pyrrolo[3,2-c]pyridin-2-ylmethyl)pentan-2-ol]
- activity as agonists of the glucocorticoid receptor function in one or more of the above assays [1]: potent agonists
- activity in the GR binding assay [2]: potent activity

SMILES: Cc1cccc(C(C)(C)CC(O)(Cc2cc(C)nc(C)c2)C(F)(F)F)c1 (stereo not shown) [2-(2,6-Dimethylpyridin-4-ylmethyl)-1,1,1-trifluoro-4-methyl-4-m-tolylpentan-2-ol]
- activity as agonists of the glucocorticoid receptor function in one or more of the above assays [1]: potent agonists
- activity in the GR binding assay [2]: potent activity

SMILES: Cc1cc2c(c(C(C)(C)CC(O)(Cc3cc4cnccc4[nH]3)C(F)(F)F)c1)OCC2 (stereo not shown) [1,1,1-Trifluoro-4-methyl-4-(5-methyl-2,3-dihydrobenzofuran-7-yl)-2-(1H-pyrrolo[3,2-c]pyridin-2-ylmethyl)pentan-2-ol]
- activity as agonists of the glucocorticoid receptor function in one or more of the above assays [1]: potent agonists
- activity in the GR binding assay [2]: potent activity

SMILES: COC(=O)CNC(=O)c1ccc2[nH]c(CC(O)(CC(C)(C)c3cc(F)ccc3OC)C(F)(F)F)cc2c1 (stereo not shown) [({2-[4-(5-Fluoro-2-methoxyphenyl)-2-hydroxy-4-methyl-2-trifluoromethylpentyl]-1H-indole-5-carbonyl}amino)acetic acid methyl ester]
- activity as agonists of the glucocorticoid receptor function in one or more of the above assays [1]: potent agonists
- activity in the GR binding assay [2]: potent activity

SMILES: CC(C)(CC(O)(Cc1ccnc2ccccc12)C(F)(F)F)c1cccc(Cl)c1 (stereo not shown) [4-(3-Chlorophenyl)-1,1,1-trifluoro-4-methyl-2-quinolin-4-ylmethylpentan-2-ol]
- activity as agonists of the glucocorticoid receptor function in one or more of the above assays [1]: potent agonists
- activity in the GR binding assay [2]: potent activity

SMILES: Cc1ccc(F)cc1C(C)(C)CC(O)(Cc1cc2cc(Cl)ncc2[nH]1)C(F)(F)F (stereo not shown) [2-(5-Chloro-1H-pyrrolo[2,3-c]pyridin-2-ylmethyl)-1,1,1-trifluoro-4-(5-fluoro-2-methylphenyl)-4-methylpentan-2-ol]
- activity as agonists of the glucocorticoid receptor function in one or more of the above assays [1]: potent agonists
- activity in the GR binding assay [2]: potent activity

SMILES: COc1ccc(C)cc1C(C)(C)CC(O)(Cc1cc2ccccc2[nH]1)C(F)(F)F (stereo not shown) [1,1,1-Trifluoro-2-(1H-indol-2-ylmethyl)-4-(2-methoxy-5-methylphenyl)-4-methylpentan-2-ol]
- activity as agonists of the glucocorticoid receptor function in one or more of the above assays [1]: potent agonists
- activity in the GR binding assay [2]: potent activity

SMILES: COc1ccc2[nH]c(CC(O)(CC(C)(C)c3cc(F)ccc3C)C(F)(F)F)cc2n1 (stereo not shown) [1,1,1-Trifluoro-4-(5-fluoro-2-methylphenyl)-2-(5-methoxy-1H-pyrrolo[3,2-b]pyridin-2-ylmethyl)-4-methylpentan-2-ol]
- activity as agonists of the glucocorticoid receptor function in one or more of the above assays [1]: potent agonists
- activity in the GR binding assay [2]: potent activity

SMILES: COC(=O)CCCNC(=O)c1ccc2[nH]c(CC(O)(CC(C)(C)c3cc(F)ccc3OC)C(F)(F)F)cc2c1 (stereo not shown) [4-({2-[4-(5-Fluoro-2-methoxyphenyl)-2-hydroxy-4-methyl-2-trifluoromethylpentyl]-1H-indole-5-carbonyl}amino)butyric acid methyl ester]
- activity as agonists of the glucocorticoid receptor function in one or more of the above assays [1]: potent agonists
- activity in the GR binding assay [2]: potent activity

SMILES: COc1ccc(F)cc1C(C)(C)CC(O)(Cc1cc2nc(C#N)ccc2[nH]1)C(F)(F)F (stereo not shown) [2-[4-(5-Fluoro-2-methoxyphenyl)-2-hydroxy-4-methyl-2-trifluoromethylpentyl]-1H-pyrrolo[3,2-b]pyridine-5-carbonitrile]
- activity as agonists of the glucocorticoid receptor function in one or more of the above assays [1]: potent agonists
- activity in the GR binding assay [2]: potent activity

SMILES: CC(C)(CC(O)(Cc1ccnc2ccccc12)C(F)(F)F)c1cc(F)ccc1O (stereo not shown) [4-Fluoro-2-(4,4,4-trifluoro-3-hydroxy-1,1-dimethyl-3-quinolin-4-ylmethylbutyl)phenol]
- activity as agonists of the glucocorticoid receptor function in one or more of the above assays [1]: potent agonists
- activity in the GR binding assay [2]: potent activity

— patent US8741897B2, “Glucocorticoid mimetics, methods of making them, pharmaceutical compositions and uses thereof” (Boehringer Ingelheim Pharmaceuticals Inc., priority 2003, dated 2014)
